Assay results published in patent US20130059824A1, “METHODS FOR TREATING MILD COGNITIVE IMPAIRMENT” (AFRAXis, Inc., priority 2009, published 2013).

Key:
PAK2 = PAK2 (Homo sapiens, UniProt Q13177); test: Z'Lyte fluorescence-based (FRET) kinase assay, PAK2; format: biochemical; details: 75 μM ATP (Km apparent), 1 hr room temperature
Protocol: (§1) A fluorescence-based assay format is used to determine IC50 values of test compounds in vitro. Purified PAK kinase is incubated with ATP, and a test compound at various concentrations and a substrate peptide containing two fluorophores. In a second step, the reaction mix is incubated with a site-specific protease that cleaves non-phosphorylated but not phosphorylated substrate peptide, disrupting the FRET signal generated by the two fluorophores in the cleaved peptide (Z'Lyte™ Kinase assay platform; Life Technologies).
(§2) Reagents: 50 mM HEPES, pH 7.5; 0.01% BRIJ-35; 10 mM MgCl2; 1 mM EGTA, 2 uM substrate peptide Ser/Thr20 (proprietary Life Technologies Sequence), PAK enzyme [2.42-30.8 ng for PAK1, 0.29-6 ng for PAK2, 1.5-20 ng for PAK3 and 0.1-0.86 ng for PAK4; actual enzyme amounts depend on lot activity of the enzyme preparation]
(§3) Test compounds are dissolved in DMSO at various concentrations; the final DMSO concentration in the assay reaction is 1%.
(§4) ATP concentration at Km apparent is used in the assay [50 ? M ATP for PAK1 assay, 75 ? […]
(§5) Plates are analyzed in a standard fluorescence plate reader (Tecan or equivalent) using an excitation wavelength of 400 nm and emission wavelengths of 445 nm and 520 nm Inhibition of kinase reaction is determined by emission ratio=emission@ 445 nm/emission@ 520 nm

PAK4 = PAK4 (Homo sapiens, UniProt O96013); test: Z'Lyte fluorescence-based (FRET) kinase assay, PAK4; format: biochemical; details: 5 μM ATP (Km apparent), 1 hr room temperature
Protocol: as §1, §2, §3, §4, §5

PAK1 = PAK1 (Homo sapiens, UniProt Q13153); test: Z'Lyte fluorescence-based (FRET) kinase assay, PAK1; format: biochemical; details: 50 μM ATP (Km apparent), 1 hr room temperature
Protocol: as §1, §2, §3, §4, §5

PAK3 = PAK3 (Homo sapiens, UniProt O75914); test: Z'Lyte fluorescence-based (FRET) kinase assay, PAK3; format: biochemical; details: 100 μM ATP (Km apparent), 1 hr room temperature
Protocol: as §1, §2, §3, §4, §5

[1] = system: C57/black 6 mice temporal cortex slices; test: Slice electrophysiology assay (LTP in cortical slices); format: cell-based; details: 1 μM compound; theta-burst stimulation protocol; temporal cortex slices of C57/black 6 mice
Protocol: Materials: coronal cortical slices (400 μam) containing temporal cortex from 2- to 3-month-old C57-Black-6 mice male littermates (from Elevage Janvier, FRANCE) are prepared and allowed to recover in oxygenated (95% O2 and 5% CO2) warm (30° C.) artificial cerebrospinal fluid (ACSF) containing 124 mM NaCl, 5 mM KCl, 1.25 mM, NaH2PO4, 1 mM MgCl2, 2 mM CaCl2, 26 mM NaHCO3, and 10 mM dextrose.
Compound dilution: a 10 mM DMSO stock solution is prepared for each test compound and 100 μL aliquots are stored at −20° C. On the day of experiment an aliquot is thawed and vortexed for fresh solutions preparation. […]
LTP: a stimulus is applied every 30 s with an intensity settled at 40% of the maximal amplitude responses. […] Potentiation of synaptic transmission is then monitored for an additional 40 minutes period. […]
Compound evaluation: following a 10 minutes control recording period (to verify baseline stability), the compound is perfused for 20 minutes. Then, LTP is triggered and the fEPSP amplitude will be recorded for an additional 40 minutes period in the presence of compound.
Data analysis: fEPSP amplitudes are measured as the difference between the baseline (before stimulation) and the maximal peak amplitude. The fEPSP are normalized as a percent of the mean averaged amplitude recorded over a 10 min control period, before compound application. […]

PAK1, sequence (Q13153 whole entry): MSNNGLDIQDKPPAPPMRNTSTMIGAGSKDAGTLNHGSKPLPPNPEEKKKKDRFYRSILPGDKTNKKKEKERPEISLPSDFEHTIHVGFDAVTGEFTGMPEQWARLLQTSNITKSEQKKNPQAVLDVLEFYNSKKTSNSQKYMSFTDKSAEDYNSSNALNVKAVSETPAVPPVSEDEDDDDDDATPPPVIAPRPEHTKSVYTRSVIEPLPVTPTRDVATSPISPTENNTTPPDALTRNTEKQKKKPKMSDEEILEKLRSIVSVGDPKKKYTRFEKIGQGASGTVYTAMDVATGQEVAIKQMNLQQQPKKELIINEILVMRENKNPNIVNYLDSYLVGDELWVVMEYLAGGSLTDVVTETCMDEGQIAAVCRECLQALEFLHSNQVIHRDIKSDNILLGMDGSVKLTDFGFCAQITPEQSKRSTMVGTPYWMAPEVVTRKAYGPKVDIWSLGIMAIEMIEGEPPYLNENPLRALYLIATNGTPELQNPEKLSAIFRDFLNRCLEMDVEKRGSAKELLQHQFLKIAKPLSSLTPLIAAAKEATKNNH
PAK4, sequence (O96013 whole entry): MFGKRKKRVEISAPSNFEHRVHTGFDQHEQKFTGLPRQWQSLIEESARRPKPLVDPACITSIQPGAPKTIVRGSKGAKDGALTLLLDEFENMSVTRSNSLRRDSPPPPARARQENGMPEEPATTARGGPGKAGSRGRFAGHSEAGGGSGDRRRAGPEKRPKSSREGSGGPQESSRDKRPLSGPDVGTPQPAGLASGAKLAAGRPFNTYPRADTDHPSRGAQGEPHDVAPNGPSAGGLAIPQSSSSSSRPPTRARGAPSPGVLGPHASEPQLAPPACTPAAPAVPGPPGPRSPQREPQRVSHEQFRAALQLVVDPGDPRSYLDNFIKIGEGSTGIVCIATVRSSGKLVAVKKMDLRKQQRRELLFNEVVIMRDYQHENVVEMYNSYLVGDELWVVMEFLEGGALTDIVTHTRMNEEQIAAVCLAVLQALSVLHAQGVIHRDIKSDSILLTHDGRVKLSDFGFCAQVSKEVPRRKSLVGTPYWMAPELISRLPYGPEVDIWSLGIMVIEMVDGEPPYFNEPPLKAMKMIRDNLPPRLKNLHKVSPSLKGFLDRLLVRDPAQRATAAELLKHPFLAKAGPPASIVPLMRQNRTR
PAK2, sequence (Q13177 whole entry): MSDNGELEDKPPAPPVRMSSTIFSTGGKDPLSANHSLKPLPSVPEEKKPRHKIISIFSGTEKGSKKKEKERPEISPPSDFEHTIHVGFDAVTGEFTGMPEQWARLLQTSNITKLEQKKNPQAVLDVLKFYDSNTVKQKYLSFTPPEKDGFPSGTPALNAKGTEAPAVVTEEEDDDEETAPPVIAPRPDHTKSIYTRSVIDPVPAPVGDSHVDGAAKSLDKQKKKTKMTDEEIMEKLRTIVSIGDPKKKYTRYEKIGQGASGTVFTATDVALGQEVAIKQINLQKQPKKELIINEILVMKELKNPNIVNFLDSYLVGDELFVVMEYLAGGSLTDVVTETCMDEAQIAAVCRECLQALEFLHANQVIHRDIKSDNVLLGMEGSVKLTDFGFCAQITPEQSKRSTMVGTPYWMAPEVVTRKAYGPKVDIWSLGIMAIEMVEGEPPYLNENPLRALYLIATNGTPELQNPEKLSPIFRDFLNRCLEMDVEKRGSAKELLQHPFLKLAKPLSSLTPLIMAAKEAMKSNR
PAK3, sequence (O75914 whole entry): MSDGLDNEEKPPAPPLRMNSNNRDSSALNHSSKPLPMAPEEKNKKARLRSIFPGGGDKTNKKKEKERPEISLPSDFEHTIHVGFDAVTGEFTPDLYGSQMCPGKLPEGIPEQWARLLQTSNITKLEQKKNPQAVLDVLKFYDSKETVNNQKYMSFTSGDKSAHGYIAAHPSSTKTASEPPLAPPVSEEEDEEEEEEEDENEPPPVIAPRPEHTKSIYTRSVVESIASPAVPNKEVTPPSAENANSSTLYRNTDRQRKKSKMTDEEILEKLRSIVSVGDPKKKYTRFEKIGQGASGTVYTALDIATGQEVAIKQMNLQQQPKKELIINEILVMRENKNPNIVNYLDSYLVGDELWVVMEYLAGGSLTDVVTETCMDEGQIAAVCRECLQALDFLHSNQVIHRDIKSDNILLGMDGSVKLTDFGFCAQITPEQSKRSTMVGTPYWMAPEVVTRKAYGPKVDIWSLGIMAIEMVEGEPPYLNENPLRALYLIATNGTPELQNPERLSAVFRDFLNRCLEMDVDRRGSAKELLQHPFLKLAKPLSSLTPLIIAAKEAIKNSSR

| IC50 (PAK2) | IC50 (PAK4) | IC50 (PAK1) | IC50 (PAK3) | Structure (SMILES) | LTP compared to the baseline (fEPSP amplitude) [1] |
| --- | --- | --- | --- | --- | --- |
| < 1 µM | 1 to 10 µM | < 1 µM | < 1 µM | CCOc1ccccc1Cn1c(=O)ccc2cnc(Nc3ccc(N4CCN(C)CC4)cc3)nc21 [Compound 62] | – |
| – | – | – | – | COc1cc(Nc2nccc(-c3ccc(NCCN)nc3)n2)cc(OC)c1OC [Compound A] | increased LTP |
| – | – | – | – | CN1CCN(c2ccc(Nc3ncc4ccc(=O)n(C5CCCC5)c4n3)cc2)CC1 [Compound G, 8-cyclopentyl-2-(4-(4-methylpiperazin-1-yl)phenylamino)pyrido[2,3-d]pyrimidin-7(8H)-one] | increased LTP |
